Structures are written as SMILES. Values after ≈ are worked out from the molar mass of the structure shown.

One test has as its target Fungal ACC2 (UniProt Q00955). The note with it: read-out: Fungal ACC2 (IC50, in vitro ACC2 inhibition).
For test [1], the system named is C. parapsilosis ATCC 22019. The experiment in a line: Anti-Fungal Activity Assay (broth microtiter MIC), C. parapsilosis. It counts as cell-based, Candida parapsilosis. The note with it: Lodderomyces parapsilosis, ATCC22019, 48 h, 3 replicates; MIC recorded at 48 h; read-out: MIC C. parapsilosis ATCC 22019. In short, it runs like this:
(§1)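 MIC taken as visual growth inhibition versus the growth control, mostly at 48 h (soraphen also at 24 h). Following CLSI M27-A3, colonies grown overnight at 35° C on Sabouraud dextrose agar were suspended in RPMI 1640+MOPS; test agents came from 1 mg/mL DMSO stocks.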

Another test deals with C. albicans ATCC 90028. The experiment in a line: Anti-Fungal Activity Assay (broth microtiter MIC), C. albicans. It counts as cell-based, Candida albicans. The note with it: Candida albicans, ATCC90028, 48 h, 3 replicates; MIC recorded at 48 h; read-out: MIC C. albicans ATCC 90028. In outline:
as §1

In another test the target is Human ACC2 (Homo sapiens, UniProt O00763). The experiment in a line: In vitro ACC2 inhibition assay (ADP-Glo), human ACC2. It counts as biochemical. As to conditions: 5 nM ACC2, 20 μM ATP, 20 μM acetyl-CoA.
The next test has as its system C. krusei ATCC 6258. Put plainly: Anti-Fungal Activity Assay (broth microtiter MIC), C. krusei. The note with it: Pichia kudriavzevii, ATCC6258, 48 h, 3 replicates; MIC recorded at 48 h; read-out: MIC C. krusei ATCC 6258. It counts as cell-based, Candida krusei. In short, it runs like this: as §1

Sequence of Human ACC2 (O00763 whole entry): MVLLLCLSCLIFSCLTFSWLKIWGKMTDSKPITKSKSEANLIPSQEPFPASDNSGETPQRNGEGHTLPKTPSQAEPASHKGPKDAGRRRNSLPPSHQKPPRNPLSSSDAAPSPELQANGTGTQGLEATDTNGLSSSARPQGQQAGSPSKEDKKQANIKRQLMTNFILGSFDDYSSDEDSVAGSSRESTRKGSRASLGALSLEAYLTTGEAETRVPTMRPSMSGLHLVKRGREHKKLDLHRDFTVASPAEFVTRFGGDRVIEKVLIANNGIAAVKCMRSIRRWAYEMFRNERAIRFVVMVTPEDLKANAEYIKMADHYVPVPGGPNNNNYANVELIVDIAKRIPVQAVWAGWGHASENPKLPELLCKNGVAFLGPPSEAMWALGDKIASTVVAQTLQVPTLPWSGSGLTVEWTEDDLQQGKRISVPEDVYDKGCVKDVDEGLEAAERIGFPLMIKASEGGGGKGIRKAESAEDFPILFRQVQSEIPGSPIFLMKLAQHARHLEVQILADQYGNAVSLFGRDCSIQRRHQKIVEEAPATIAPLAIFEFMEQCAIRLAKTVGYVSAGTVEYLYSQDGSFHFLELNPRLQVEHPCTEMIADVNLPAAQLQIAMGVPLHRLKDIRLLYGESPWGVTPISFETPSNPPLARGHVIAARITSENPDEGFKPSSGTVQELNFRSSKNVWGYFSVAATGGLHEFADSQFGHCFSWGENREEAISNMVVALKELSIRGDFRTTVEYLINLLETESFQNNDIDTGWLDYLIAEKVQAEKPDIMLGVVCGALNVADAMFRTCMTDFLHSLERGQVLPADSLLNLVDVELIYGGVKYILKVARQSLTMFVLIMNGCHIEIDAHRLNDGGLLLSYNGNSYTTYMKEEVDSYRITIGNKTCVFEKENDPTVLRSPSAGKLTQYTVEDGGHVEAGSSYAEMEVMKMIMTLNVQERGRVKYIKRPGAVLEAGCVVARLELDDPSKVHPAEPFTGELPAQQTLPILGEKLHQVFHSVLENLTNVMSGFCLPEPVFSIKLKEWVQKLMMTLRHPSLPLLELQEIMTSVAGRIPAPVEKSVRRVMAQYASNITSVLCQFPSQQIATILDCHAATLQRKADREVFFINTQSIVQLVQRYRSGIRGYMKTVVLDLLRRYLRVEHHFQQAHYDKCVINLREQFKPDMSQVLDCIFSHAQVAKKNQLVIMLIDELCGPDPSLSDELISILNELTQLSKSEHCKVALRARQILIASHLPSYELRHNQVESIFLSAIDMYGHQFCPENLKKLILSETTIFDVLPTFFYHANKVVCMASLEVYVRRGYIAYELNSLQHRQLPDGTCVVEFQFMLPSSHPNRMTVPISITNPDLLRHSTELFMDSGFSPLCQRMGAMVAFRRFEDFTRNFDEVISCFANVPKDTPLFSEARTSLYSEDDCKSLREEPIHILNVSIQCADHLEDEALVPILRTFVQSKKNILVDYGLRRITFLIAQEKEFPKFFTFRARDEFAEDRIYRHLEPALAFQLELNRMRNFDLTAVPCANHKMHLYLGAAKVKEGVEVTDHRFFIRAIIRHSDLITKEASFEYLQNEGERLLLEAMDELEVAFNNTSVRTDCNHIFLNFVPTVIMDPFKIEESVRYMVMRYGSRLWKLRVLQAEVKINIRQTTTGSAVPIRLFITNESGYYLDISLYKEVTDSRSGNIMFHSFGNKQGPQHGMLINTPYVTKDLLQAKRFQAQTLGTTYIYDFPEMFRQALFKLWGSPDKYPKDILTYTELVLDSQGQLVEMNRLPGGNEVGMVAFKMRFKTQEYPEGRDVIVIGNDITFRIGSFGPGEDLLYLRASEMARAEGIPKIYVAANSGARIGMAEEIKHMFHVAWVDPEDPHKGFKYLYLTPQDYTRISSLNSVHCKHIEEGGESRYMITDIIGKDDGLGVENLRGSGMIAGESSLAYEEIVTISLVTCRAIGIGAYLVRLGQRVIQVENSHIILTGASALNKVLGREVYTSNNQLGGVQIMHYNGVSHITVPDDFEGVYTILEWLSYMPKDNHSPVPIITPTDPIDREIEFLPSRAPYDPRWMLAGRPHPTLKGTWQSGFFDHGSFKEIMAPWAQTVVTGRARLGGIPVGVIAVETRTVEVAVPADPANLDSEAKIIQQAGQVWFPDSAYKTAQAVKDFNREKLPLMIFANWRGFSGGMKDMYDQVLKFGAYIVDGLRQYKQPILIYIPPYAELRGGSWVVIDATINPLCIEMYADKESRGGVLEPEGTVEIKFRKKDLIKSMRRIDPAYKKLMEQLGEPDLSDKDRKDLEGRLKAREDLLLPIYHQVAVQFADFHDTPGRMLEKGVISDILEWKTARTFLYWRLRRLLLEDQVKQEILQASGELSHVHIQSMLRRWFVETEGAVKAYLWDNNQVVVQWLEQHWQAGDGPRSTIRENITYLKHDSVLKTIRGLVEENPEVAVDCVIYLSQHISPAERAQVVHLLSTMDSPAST
Sequence of Fungal ACC2 (Q00955 whole entry): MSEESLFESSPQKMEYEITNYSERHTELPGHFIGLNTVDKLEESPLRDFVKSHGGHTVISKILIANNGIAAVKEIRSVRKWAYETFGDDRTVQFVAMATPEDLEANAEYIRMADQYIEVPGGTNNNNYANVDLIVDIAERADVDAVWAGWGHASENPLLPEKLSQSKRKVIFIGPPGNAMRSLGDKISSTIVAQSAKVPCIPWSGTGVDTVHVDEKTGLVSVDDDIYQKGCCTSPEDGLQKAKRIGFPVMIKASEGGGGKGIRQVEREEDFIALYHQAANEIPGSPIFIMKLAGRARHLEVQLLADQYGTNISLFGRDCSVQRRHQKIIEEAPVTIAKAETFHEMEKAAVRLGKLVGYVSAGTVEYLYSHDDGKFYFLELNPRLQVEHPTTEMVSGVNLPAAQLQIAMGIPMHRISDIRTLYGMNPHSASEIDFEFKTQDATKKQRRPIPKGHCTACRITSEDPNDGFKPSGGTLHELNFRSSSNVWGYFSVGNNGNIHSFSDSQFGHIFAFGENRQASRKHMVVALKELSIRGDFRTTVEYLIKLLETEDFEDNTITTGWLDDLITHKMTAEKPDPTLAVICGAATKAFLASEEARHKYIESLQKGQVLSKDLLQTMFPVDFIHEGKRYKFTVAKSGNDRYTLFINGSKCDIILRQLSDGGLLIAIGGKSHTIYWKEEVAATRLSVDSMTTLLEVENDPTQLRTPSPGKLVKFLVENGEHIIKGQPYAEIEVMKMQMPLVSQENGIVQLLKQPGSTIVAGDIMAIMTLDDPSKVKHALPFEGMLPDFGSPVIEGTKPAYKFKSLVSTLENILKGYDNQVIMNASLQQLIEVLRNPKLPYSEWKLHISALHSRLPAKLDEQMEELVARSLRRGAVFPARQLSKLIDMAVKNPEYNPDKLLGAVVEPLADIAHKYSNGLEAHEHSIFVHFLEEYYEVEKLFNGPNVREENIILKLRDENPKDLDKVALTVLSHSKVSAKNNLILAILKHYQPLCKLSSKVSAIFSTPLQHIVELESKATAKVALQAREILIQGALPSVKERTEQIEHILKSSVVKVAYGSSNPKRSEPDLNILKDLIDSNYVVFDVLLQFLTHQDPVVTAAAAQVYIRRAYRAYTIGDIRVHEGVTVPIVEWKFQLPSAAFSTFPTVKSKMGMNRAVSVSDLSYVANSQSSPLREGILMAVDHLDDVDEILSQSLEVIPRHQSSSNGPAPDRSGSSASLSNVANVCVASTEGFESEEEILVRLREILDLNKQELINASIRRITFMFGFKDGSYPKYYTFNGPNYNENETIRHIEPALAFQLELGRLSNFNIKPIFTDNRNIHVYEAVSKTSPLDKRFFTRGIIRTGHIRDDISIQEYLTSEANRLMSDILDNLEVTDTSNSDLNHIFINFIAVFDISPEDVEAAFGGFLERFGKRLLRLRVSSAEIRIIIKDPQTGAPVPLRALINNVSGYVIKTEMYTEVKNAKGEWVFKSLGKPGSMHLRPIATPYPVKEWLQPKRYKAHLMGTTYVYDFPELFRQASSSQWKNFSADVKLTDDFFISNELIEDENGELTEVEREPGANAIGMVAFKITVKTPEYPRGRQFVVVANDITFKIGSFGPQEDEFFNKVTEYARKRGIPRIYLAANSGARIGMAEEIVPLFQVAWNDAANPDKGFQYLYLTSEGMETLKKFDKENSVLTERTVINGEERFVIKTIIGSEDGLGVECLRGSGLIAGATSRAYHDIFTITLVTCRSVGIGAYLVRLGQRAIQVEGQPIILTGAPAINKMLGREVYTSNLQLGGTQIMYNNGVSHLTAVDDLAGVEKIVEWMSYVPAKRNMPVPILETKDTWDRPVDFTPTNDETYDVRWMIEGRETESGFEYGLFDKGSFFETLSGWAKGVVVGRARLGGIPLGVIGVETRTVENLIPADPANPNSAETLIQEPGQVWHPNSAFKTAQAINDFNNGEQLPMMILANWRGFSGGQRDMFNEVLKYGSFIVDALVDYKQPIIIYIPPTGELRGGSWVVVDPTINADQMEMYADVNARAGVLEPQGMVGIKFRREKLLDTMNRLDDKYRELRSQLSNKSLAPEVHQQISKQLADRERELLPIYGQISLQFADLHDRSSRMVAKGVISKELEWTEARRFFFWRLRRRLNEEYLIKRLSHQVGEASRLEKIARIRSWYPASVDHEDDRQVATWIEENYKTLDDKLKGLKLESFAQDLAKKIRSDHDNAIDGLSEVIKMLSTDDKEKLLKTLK

As to `COCCO[C@@H](Cn1c(=O)n(C2CCNC2=O)c(=O)c2c(C)c(-n3nccn3)sc21)c1cc(F)ccc1OC` (stereo partly drawn) [Compound I-1, 1-((R)-2-(5-fluoro-2-methoxyphenyl)-2-(2-methoxyethoxy)ethyl)-5-methyl-3-(2-oxopyrrolidin-3-yl)-6-(2H-1,2,3-triazol-2-yl)thieno[2,3-d]pyrimidine-2,4(1H,3H)-dione], the half-inhibitory concentration (IC50) lay in the range of 0.7 to 2 nM at Fungal ACC2 and 2 to 10 nM at Human ACC2. In addition, the minimal inhibitory concentration (MIC) (in test [1]; with C. albicans ATCC 90028; with C. krusei ATCC 6258) was 2.1 to 4 µg/mL (≈ 3.76 to 7.16 µM) each time.

Consider `COCCO[C@@H](Cn1c(=O)n([C@H]2CCN(C)C2=O)c(=O)c2c(C)c(-n3nccn3)sc21)c1cc(F)ccc1O` [Compound I-157, 1-((R)-2-(5-fluoro-2-hydroxyphenyl)-2-(2-methoxyethoxy)ethyl)-5-methyl-3-((S)-1-methyl-2-oxopyrrolidin-3-yl)-6-(2H-1,2,3-triazol-2-yl)thieno[2,3-d]pyrimidine-2,4(1H,3H)-dione], for which the IC50 on Fungal ACC2 lay within 2 to 10 nM; against Human ACC2 it was 100 to 1000 nM. The minimum inhibitory concentration (MIC) (in test [1]; with C. albicans ATCC 90028; with C. krusei ATCC 6258) was 2.1 to 4 µg/mL (≈ 3.76 to 7.16 µM) in each case.

As to `COc1ccccc1C(=O)Cn1c(=O)n([C@H]2CCN(C)C2=O)c(=O)c2c(C)c(-n3nccn3)sc21` [Compound I-163, (S)-1-(2-(2-methoxyphenyl)-2-oxoethyl)-5-methyl-3-(1-methyl-2-oxopyrrolidin-3-yl)-6-(2H-1,2,3-triazol-2-yl)thieno[2,3-d]pyrimidine-2,4(1H,3H)-dione], the IC50 at Fungal ACC2 is 100 to 1000 nM; on Human ACC2 it was greater than 1000 nM. In addition, the MIC (in test [1]; in the test on C. albicans ATCC 90028; in the test on C. krusei ATCC 6258) was 2.1 to 4 µg/mL (≈ 4.25 to 8.09 µM) throughout.

Consider `COc1ccc(F)cc1[C@H](Cn1c(=O)n([C@@H]2CCCN(C)C2=O)c(=O)c2c(C)c(-n3nccn3)sc21)OC1CCOCC1` [Compound I-40, 1-((R)-2-(5-fluoro-2-methoxyphenyl)-2-((tetrahydro-2H-pyran-4-yl)oxy)ethyl)-5-methyl-3-((R)-1-methyl-2-oxopiperidin-3-yl)-6-(2H-1,2,3-triazol-2-yl)thieno[2,3-d]pyrimidine-2,4(1H,3H)-dione], for which the half-inhibitory concentration (IC50) is 0.7 to 2 nM at Fungal ACC2 and 10 to 100 nM on Human ACC2. The results for the MIC (in test [1]; in the test with C. albicans ATCC 90028; in the test with C. krusei ATCC 6258) were 0.25 to 1 µg/mL (≈ 0.408 to 1.63 µM), 1.1 to 2 µg/mL (≈ 1.8 to 3.26 µM) and 1.1 to 2 µg/mL (≈ 1.8 to 3.26 µM), respectively.

On to `COc1ccc(F)cc1[C@H](Cn1c(=O)n([C@H]2CCCNC2=O)c(=O)c2c(C)c(-n3nccn3)sc21)O[C@H]1CC[C@@H](O)CC1` [Compound I-173, 1-((R)-2-(S-fluoro-2-methoxyphenyl)-2-(((1s, 4S)-4-hydroxycyclohexyl)oxy)ethyl)-5-methyl-3-((S)-2-oxopiperidin-3-yl)-6-(2H-1,2,3-triazol-2-yl)thieno[2,3-d]pyrimidine-2,4(1H, 3H)-dione], for which the 50% inhibitory concentration (IC50) is 0.7 to 2 nM on Fungal ACC2 and 2 to 10 nM against Human ACC2. The minimal inhibitory concentration (MIC) (in test [1]; in the test with C. albicans ATCC 90028; in the test on C. krusei ATCC 6258) was 2.1 to 4 µg/mL (≈ 3.43 to 6.53 µM) throughout.

Take `COc1ccc(F)cc1[C@H](Cn1c(=O)n([C@H]2CCN(C(=O)C(C)C)C2)c(=O)c2c(C)c(-n3nccn3)sc21)OCCO` [Compound I-97, 1-((R)-2-(5-fluoro-2-methoxyphenyl)-2-(2-hydroxy-ethoxy)ethyl)-3-((S)-1-isobutyrylpyrrolidin-3-yl)-5-methyl-6-(2H-1,2,3-triazol-2-yl)thieno[2,3-d]pyrimidine-2,4(1H,3H)-dione]: the IC50 at Fungal ACC2 was in the range of 0.7 to 2 nM; against Human ACC2, 10 to 100 nM. Further, the MIC (in test [1]; in the test on C. albicans ATCC 90028; in the test with C. krusei ATCC 6258) was 2.1 to 4 µg/mL (≈ 3.5 to 6.66 µM) each time.

On to `COc1ccc(F)cc1[C@H](Cn1c(=O)n([C@H]2CCN(C)C2=O)c(=O)c2c(C)c(-n3cccn3)sc21)OCCC(=O)O` [Compound I-180, 3-((R)-1-(5-fluoro-2-methoxyphenyl)-2-(5-methyl-3-((S)-1-methyl-2-oxopyrrolidin-3-yl)-2,4-dioxo-6-(1H-pyrazol-1-yl)-3,4-dihydrothieno[2,3-d]pyrimidin-1(2H)-yl)ethoxy)propanoic acid], for which the IC50 at Fungal ACC2 was 10 to 100 nM; against Human ACC2, 100 to 1000 nM. Besides, the minimal inhibitory concentration (MIC) (in test [1]; in the test on C. albicans ATCC 90028; with C. krusei ATCC 6258) was 2.1 to 4 µg/mL (≈ 3.59 to 6.83 µM) throughout.

For `COc1ccc(F)cc1C(=O)Cn1c(=O)n([C@H]2CCN(C)C2=O)c(=O)c2c(C)c(-n3nccn3)sc21` [Compound I-161, (S)-1-(2-(5-fluoro-2-methoxyphenyl)-2-oxoethyl)-5-methyl-3-(1-methyl-2-oxopyrrolidin-3-yl)-6-(2H-1,2,3-triazol-2-yl)thieno[2,3-d]pyrimidine-2,4(1H,3H)-dione], the IC50 is 100 to 1000 nM on Fungal ACC2 and greater than 1000 nM at Human ACC2. The MIC (in test [1]; with C. albicans ATCC 90028; in the test on C. krusei ATCC 6258) was 2.1 to 4 µg/mL (≈ 4.1 to 7.8 µM) in each case.

Regarding `COCCO[C@@H](Cn1c(=O)n(CCN2CCCNC2=O)c(=O)c2c(C)c(-n3nccn3)sc21)c1cc(F)ccc1OC` [Compound I-100, (R)-1-(2-(5-fluoro-2-methoxyphenyl)-2-(2-methoxy-ethoxy)ethyl)-5-methyl-3-(2-(2-oxotetrahydropyrimidin-1 (2H)-yl)ethyl)-6-(2H-1,2,3-triazol-2-yl)thieno[2,3-d]pyrimidine-2,4(1H,3H)-dione], the IC50 at Fungal ACC2 was 2 to 10 nM; at Human ACC2 it was 10 to 100 nM. In addition, the MIC (in test [1]; in the test with C. albicans ATCC 90028; in the test with C. krusei ATCC 6258) was 2.1 to 4 µg/mL (≈ 3.49 to 6.65 µM) each time.

For `COCCO[C@@H](Cn1c(=O)n([C@@]2(C)CCC(=O)N(C)C2)c(=O)c2c(C)c(-n3nccn3)sc21)c1cc(F)ccc1OC` [Compound I-137, 3-((S)-1,3-dimethyl-6-oxopiperidin-3-yl)-1-((R)-2-(5-fluoro-2-methoxyphenyl)-2-(2-methoxyethoxy)ethyl)-5-methyl-6-(2H-1,2,3-triazol-2-yl)thieno[2,3-d]pyrimidine-2,4(1H,3H)-dione], the 50% inhibitory concentration (IC50) at Fungal ACC2 is 2 to 10 nM; against Human ACC2, 10 to 100 nM. The MIC (in test [1]; with C. albicans ATCC 90028; in the test on C. krusei ATCC 6258) was 2.1 to 4 µg/mL (≈ 3.5 to 6.66 µM) throughout.

In the case of `CCN1CCCC(n2c(=O)c3c(C)c(-n4nccn4)sc3n(C[C@H](OCCOC)c3cc(F)ccc3OC)c2=O)C1=O` (stereo partly drawn) [Compound I-15, 3-(1-ethyl-2-oxopiperidin-3-yl)-1-((R)-2-(5-fluoro-2-methoxyphenyl)-2-(2-methoxyethoxy)ethyl)-5-1-methyl-6-(2H-1,2,3-triazol-2-yl)thieno[2,3-d]pyrimidine-2,4(1H,3H)-dione], the IC50 at Fungal ACC2 and against Human ACC2 was 10 to 100 nM in each case. For the same compound, the minimal inhibitory concentration (MIC) (in test [1]; in the test with C. albicans ATCC 90028; in the test on C. krusei ATCC 6258) was 2.1 to 4 µg/mL (≈ 3.5 to 6.66 µM) in each case.

Take `COCCO[C@@H](Cn1c(=O)n([C@@H]2CCN(C)C2=O)c(=O)c2c(C)c(-n3nccn3)sc21)c1cc(F)ccc1O` [Compound I-158, 1-((R)-2-(5-fluoro-2-hydroxyphenyl)-2-(2-methoxyethoxy)ethyl)-5-methyl-3-((R)-1-methyl-2-oxopyrrolidin-3-yl)-6-(2H-1,2,3-triazol-2-yl)thieno[2,3-d]pyrimidine-2,4(1H,3H)-dione]: the IC50 at Fungal ACC2 lay within 2 to 10 nM; against Human ACC2 it was 100 to 1000 nM. Moreover, the minimum inhibitory concentration (MIC) (in test [1]; in the test on C. albicans ATCC 90028; in the test on C. krusei ATCC 6258) was 2.1 to 4 µg/mL (≈ 3.76 to 7.16 µM) in each case.

As for `COc1ccc(F)cc1[C@H](Cn1c(=O)n([C@@]2(C)CC(=O)N(C)C2)c(=O)c2c(C)c(-n3nccn3)sc21)OCCO` [Compound I-123, 3-((S)-1,3-dimethyl-5-oxopyrrolidin-3-yl)-1-((R)-2-(5-fluoro-2-methoxyphenyl)-2-(2-hydroxyethoxy)ethyl)-5-methyl-6-(2H-1,2,3-triazol-2-yl)thieno[2,3-d]pyrimidine-2,4(1H,3H)-dione], the IC50 at Fungal ACC2 is 0.7 to 2 nM; against Human ACC2, 10 to 100 nM. The MIC (in test [1]; in the test with C. albicans ATCC 90028; in the test with C. krusei ATCC 6258) was 2.1 to 4 µg/mL (≈ 3.67 to 6.99 µM) throughout.

On to `COc1ccc(F)cc1[C@H](Cn1c(=O)n([C@@]2(C)CCCN(C)C2=O)c(=O)c2c(C)c(-n3nccn3)sc21)OCCO` [Compound I-131, 3-((S)-1,3-dimethyl-2-oxopiperidin-3-yl)-1-((R)-2-(5-fluoro-2-methoxyphenyl)-2-(2-hydroxyethoxy)ethyl)-5-methyl-6-(2H-1,2,3-triazol-2-yl)thieno[2,3-d]pyrimidine-2,4(1H,3H)-dione], for which the IC50 fell in the range of 0.7 to 2 nM on Fungal ACC2 and 10 to 100 nM against Human ACC2. Moreover, the minimal inhibitory concentration (MIC) (in test [1]; in the test on C. albicans ATCC 90028; with C. krusei ATCC 6258) was 2.1 to 4 µg/mL (≈ 3.58 to 6.82 µM) in each case.

As to `COCCO[C@@H](Cn1c(=O)n(CCN2CCCCC2=O)c(=O)c2c(C)c(-n3nccn3)sc21)c1cc(F)ccc1OC` [Compound I-98, (R)-1-(2-(S-fluoro-2-methoxyphenyl)-2-(2-methoxy-ethoxy)ethyl)-5-methyl-3-(2-(2-oxopiperidin-1-yl)ethyl)-6-(2H-1,2,3-triazol-2-yl)thieno[2,3-d]pyrimidine-2,4(1H3H)-dione], the concentration for half-maximal inhibition (IC50) fell in the range of 2 to 10 nM on Fungal ACC2 and 10 to 100 nM at Human ACC2. In addition, the MIC (in test [1]; in the test on C. albicans ATCC 90028; in the test on C. krusei ATCC 6258) was 2.1 to 4 µg/mL (≈ 3.5 to 6.66 µM) throughout.

The record behind these values is patent US20190330224A1, “ACC INHIBITORS AND USES THEREOF” (Gilead Apollo, LLC, priority 2015, published 2019).
